Experimental data published in publication PMC5515969, “Effects of 31 FDA approved small-molecule kinase inhibitors on isolated rat liver mitochondria” (Archives of Toxicology, 2016).
Like-named read-outs stand apart in the source and are kept apart here.

What was measured:
[1] = system: RCC III; test: RCC III activity in submitochondrial particles; format: biochemical, rat; parameters: key to RCC III at 100XCmax: activity relative to DMSO-treated controls (control set as 1 = 100%); conditions: for RCC activity III: 15 min, DMSO-treated = 100
How it was run: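 Kinase inhibitors were preincubated 15 min with submitochondrial particles (1 mg/ml) before complex activities were measured. RCC I was the rotenone-sensitive portion (activity without minus with rotenone). RCC I/V was read at 340 nm and RCC II at 600 nm every 1 min for 6 min. RCC III and IV were read at 550 nm every 10 s for 2 min. Activities are normalized to DMSO controls set as 1.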

[2] = parameters: method as in product labeling; conditions: ref product labeling, cited from earlier work; for Labeling for cardiotoxicity: BBW: black box warning, W&P: Warnings and Precautions
[3] = system: isolated rat liver mitochondria; test: Mitochondrial ROS production (CM-H2DCFDA); conditions: DMSO treated samples set as 1
[4] = ref product labeling, cited from earlier work; for Labeling for cardiotoxicity: BBW: black box warning, W&P: Warnings and Precautions
[5] = relative to DMSO treated samples

Structure (SMILES) | RCC III at 100XCmax [1, 5] | Labeling for cardiotoxicity [2] | Potential for cardiotoxicity (based on labeling) [2] | ROS measured by CM-H2DCFDA at 1XCmax [3] | ROS measured by CM-H2DCFDA at 2.5XCmax [3] | ROS measured by CM-H2DCFDA at 5XCmax [3] | ROS measured by CM-H2DCFDA at 10XCmax [3] | ROS measured by CM-H2DCFDA at 20XCmax [3] | ROS measured by CM-H2DCFDA at 30XCmax [3] | ROS measured by CM-H2DCFDA at 50XCmax [3] | ROS measured by CM-H2DCFDA at 100XCmax [3] | RCC activity III ([1]; 100-fold Cmax) | RCC III at 100XCmax [1] | Labeling for cardiotoxicity [4] | Potential for cardiotoxicity (based on labeling) [4] | RCC activity III ([1]; 50-fold Cmax)
CNC(=O)c1ccccc1Sc1ccc2c(/C=C/c3ccccn3)n[nH]c2c1 [Axitinib] | 0 | W&P: Cardiac Failure | 1 | 0 | 0 | 0 | 0 | 0 | 0 | 0 | 0 | – | – | – | – | –
COc1cc(Nc2c(C#N)cnc3cc(OCCCN4CCN(C)CC4)c(OC)cc23)c(Cl)cc1Cl [Bosutinib] | 0 | – | 0 | 0 | 0 | 0 | 0 | 0 | 0 | 0 | 0 | 101.81 ± 4.43 % of control | – | – | – | –
O=C(c1ccc(F)c(F)c1Nc1ccc(I)cc1F)N1CC(O)([C@@H]2CCCCN2)C1 [Cobimetinib] | – | – | – | 0 | 0 | 0 | 0 | 0 | 0 | 0 | 0 | – | 0 | W&P: Cardiomyopathy | 1 | –
COc1cc2nccc(Oc3ccc(NC(=O)NC4CC4)c(Cl)c3)c2cc1C(N)=O [Lenvatinib] | – | – | – | 0 | 0 | 0 | 0 | 0 | 0 | 0 | 0 | – | 0 | – | – | –
COC(=O)c1ccc2c(c1)NC(=O)/C2=C(\Nc1ccc(N(C)C(=O)CN2CCN(C)CC2)cc1)c1ccccc1 [Nintedanib] | – | – | – | 0 | 0 | 0 | 0 | 0 | 0 | 0 | 0 | – | 0 | – | 0 | –
CC(=O)Nc1cccc(-n2c(=O)n(C3CC3)c(=O)c3c(Nc4ccc(I)cc4F)n(C)c(=O)c(C)c32)c1 [Trametinib] | – | – | – | 0 | 0 | 0 | 0 | 0 | 0 | 0 | 0 | – | 0 | W&P: Cardiomyopathy | 1 | –
COc1cc2c(Nc3ccc(Br)cc3F)ncnc2cc1OCC1CCN(C)CC1 [Vandetanib] | – | BBW | 1 | 0 | 0 | 0 | 0 | 0 | 0 | 0 | 0 | 91.23 ± 6.54 % of control | – | – | – | 99.20 ± 5.61 % of control
CCCS(=O)(=O)Nc1ccc(F)c(C(=O)c2c[nH]c3ncc(-c4ccc(Cl)cc4)cc23)c1F [Vemurafenib] | – | W&P: QT Prolongation | 1 | 0 | 0 | 0 | 0 | 0 | 0 | 0 | 0 | – | – | – | – | –
CN(C)C/C=C/C(=O)Nc1cc2c(Nc3ccc(F)c(Cl)c3)ncnc2cc1O[C@H]1CCOC1 [afatinib dimaleate] | – | – | – | 0 | 0 | 0 | 0 | 0 | 0 | 0 | 0 | – | 0 | – | 0 | –
Cc1nc(Nc2ncc(C(=O)Nc3c(C)cccc3Cl)s2)cc(N2CCN(CCO)CC2)n1 [dasatinib (free base)] | 0 | W&P: Cardiovascular events;QT Interval Prolongation | 1 | 0 | 0 | 0 | 0 | 0 | 0 | 0 | 0 | – | – | – | – | –
N#CC[C@H](C1CCCC1)n1cc(-c2ncnc3[nH]ccc23)cn1 [ruxolitinib phosphate] | 0 | – | 0 | 0 | 0 | 0 | 0 | 0 | 0 | 0 | 0 | – | – | – | – | –
CCN(CC)CCNC(=O)c1c(C)[nH]c(/C=C2\C(=O)Nc3ccc(F)cc32)c1C [sunitinib malate] | 0 | W&P: Cardiovascular events;QT Interval Prolongation and Torsade de Pointes | 1 | 0 | 0 | 0 | 0 | 0 | 0 | 0 | 0 | – | – | – | – | –
